Laboratory results as given in patent US9101136B2, “Synergistic herbicide/fungicide composition containing certain pyridine carboxylic acids and certain fungicides” (Dow AgroSciences LLC, priority 2010, dated 2015).
Like-named read-outs stand apart in the source and are kept apart here.

Columns and labels:
Assay type in all cases: in vivo
[1] = tested on: Canada thistle (Cirsium arvense L; CIRAR); experiment: Postemergence herbicidal activity of mixtures on Canada thistle; settings: for CIRAR Ob (observed control): alone
Description: (§1) Seeds of the desired test plant species were planted in Sun Gro MetroMix 306 planting mixture, which typically has a pH of 6.0 to 6.8 and an organic matter content of about 30 percent, in plastic pots with a surface area of 103.2 square centimeters (cm^2). When required to ensure good germination and healthy plants, a fungicide treatment and/or other chemical or physical treatment was applied. The plants were grown for 7-36 days (d) in a greenhouse with an approximate 14-hour (h) photoperiod which was maintained at about 18° C. during the day and 17° C. during the night. Nutrients and water were added on a regular basis and supplemental lighting was provided with overhead metal halide 1000-Watt lamps as necessary. The plants were employed for testing when they reached the second or third true leaf stage.
(§2) Treatments consisted of a cereal fungicide compound (as listed in Tables 1 through 34) and the cereal herbicide, 4-amino-3-chloro-6-(4-chloro-2-fluoro-3-methoxyphenyl)pyridine-2-carboxylic acid, alone and in combination. Weighed amounts of acid, esters (methyl) or salts (triethylammonium, TEA) of 4-amino-3-chloro-6-(4-chloro-2-fluoro-3-methoxyphenyl)pyridine-2-carboxylic acid (Compound I) were placed in 25 milliliter (mL) glass vials and dissolved in a volume of 97:3 volume-to-volume (v/v) acetone/dimethyl sulfoxide (DMSO) to obtain 4.5 milligrams active ingredient per milliliter (mg ai/mL) concentrated solutions. […] The concentrated solutions of Compound I were diluted to 1.5 mg ai/mL with the addition of 2 volumes of an aqueous mixture containing acetone, water, isopropyl alcohol, DMSO, Agri-dex crop oil concentrate, and Triton® X-77 surfactant in a 64.7:26.0:6.7:2.0:0.7:0.01 v/v ratio. A dilution solution was prepared by mixing 1 volume of 97:3 v/v acetone/DMSO and 2 volumes of an aqueous mixture containing acetone, water, isopropyl alcohol, DMSO, Agri-dex crop oil concentrate, and Triton® X-77 surfactant in a 64.7:26.0:6.7:2.0:0.7:0.01 v/v ratio. Compound requirements are based upon a 12 mL application volume at a rate of 187 liters per hectare (L/ha). The concentrated solutions of the cereal fungicides were prepared following the same procedure. Weighed amounts of fungicide were placed in 25 mL glass vials and dissolved in a volume of 97:3 v/v acetone/DMSO to obtain concentrated fungicide solutions. The concentrated solutions of the safener were prepared following the same procedure. Weighed amounts of safener were placed in 25 mL glass vials and dissolved in a volume of 97:3 v/v acetone/DMSO to obtain concentrated safener solutions.
(§3) Spray solutions of the cereal herbicide and the fungicidal compound mixtures were prepared by adding the concentrated solutions to the appropriate amount of dilution solution to form 12 mL spray solution with active ingredients in combinations. Spray solutions of the cereal herbicide, herbicide safener and the fungicidal compound mixtures were prepared by adding the concentrated solutions to the appropriate amount of dilution solution to form 12 mL spray solution with active ingredients in combinations. […]
(§4) The treated plants and control plants were placed in a greenhouse as described above and watered by sub-irrigation to prevent wash-off of the test compounds. After 20-22 d, the condition of the test plants as compared with that of the control plants was determined visually and scored on a scale of 0 to 100 percent where 0 corresponds to no injury and 100 corresponds to complete kill. […]

[2] = tested on: lamb's-quarter (Chenopodium album L; CHEAL); experiment: Postemergence herbicidal activity of mixtures on lamb's-quarter; settings: for CHEAL Ob (observed control): alone
Description: as §1
as §2, with “The concentrated solutions of the safener were prepared following the same procedure. Weighed amounts of safener were placed in 25 mL glass vials and dissolved in a volume of 97:3 v/v acetone/DMSO to obtain concentrated safener solutions.” left out
as §4

[3] = tested on: chickweed (Stellaria media L; STEME); experiment: Postemergence herbicidal activity of mixtures on chickweed; settings: for STEME Ob (observed control): alone
Description: as §1
Treatments consisted of a cereal fungicide compound (as listed in Tables 1 through 34) and the cereal herbicide, 4-amino-3-chloro-6-(4-chloro-2-fluoro-3-methoxyphenyl)pyridine-2-carboxylic acid, alone and in combination. Weighed amounts of acid, esters (methyl) or salts (triethylammonium, TEA) of 4-amino-3-chloro-6-(4-chloro-2-fluoro-3-methoxyphenyl)pyridine-2-carboxylic acid (Compound I) were placed in 25 milliliter (mL) glass vials and dissolved in a volume of 97:3 volume-to-volume (v/v) acetone/dimethyl sulfoxide (DMSO) to obtain 4.5 milligrams active ingredient per milliliter (mg ai/mL) concentrated solutions. […] The concentrated solutions of Compound I were diluted to 1.5 mg ai/mL with the addition of 2 volumes of an aqueous mixture containing acetone, water, isopropyl alcohol, DMSO, Agri-dex crop oil concentrate, and Triton® X-77 surfactant in a 64.7:26.0:6.7:2.0:0.7:0.01 v/v ratio. […]
as §4

[4] = tested on: redroot pigweed (Amaranthus retroflexus L; AMARE); experiment: Postemergence herbicidal activity of mixtures on redroot pigweed; settings: for AMARE Ob (observed control): alone
Description: as §1, §2, §3, §4

[5] = tested on: wild pansy (Viola tricolor L; VIOTR); experiment: Postemergence herbicidal activity of mixtures on wild pansy
Description: as §1, §2
(§5) Spray solutions of the cereal herbicide and the fungicidal compound mixtures were prepared by adding the concentrated solutions to the appropriate amount of dilution solution to form 12 mL spray solution with active ingredients in combinations. Spray solutions of the cereal herbicide, herbicide safener and the fungicidal compound mixtures were prepared by adding the concentrated solutions to the appropriate amount of dilution solution to form 12 mL spray solution with active ingredients in combinations.
(§6) Formulated compounds were applied to the plant material with an overhead Mandel track sprayer equipped with 8002E nozzles calibrated to deliver 187 L/ha over an application area of 0.503 square meters (m^2) at a spray height of 18 inches […] above average plant canopy. Control plants were sprayed in the same manner with the solvent blank.
as §4

[6] = tested on: bird's-eye speedwell (Veronica persica L; VERPE); experiment: Postemergence herbicidal activity of mixtures on bird's-eye speedwell
Description: as §1, §2, §5, §6, §4

[7] = tested on: kochia (Kochia scoparia L; KCHSC); experiment: Postemergence herbicidal activity of mixtures on kochia; parameters: KCHSC Ob: unit: %
Description: as §1, §2, §5, §6, §4

Wheat = experiment: Safening activity of herbicidal compositions on wheat (crop injury)
Description: as §1, §2, §5, §6, §4

[8] = tested on: scented mayweed (Matricaria chamomila L; MATCH); experiment: Postemergence herbicidal activity of mixtures on scented mayweed
Description: as §1, §2, §5, §6, §4

Barley = experiment: Safening activity of herbicidal compositions on barley (crop injury)
Description: as §1, §2, §5, §6, §4

[9] = tested on: Russian thistle (Salsola iberica L; SASKR); experiment: Postemergence herbicidal activity of mixtures on Russian thistle
Description: as §1, §2, §5, §6, §4

COC(=O)NC(=S)Nc1ccccc1NC(=S)NC(=O)OC [Thiophanate-methyl, dimethyl[1,2-phenylenebis(iminocarbonothioyl)]bis[carbamate]]
0%: CIRAR Ob (observed control) ([1]; 750 g/ha) | CHEAL Ob (observed control) ([2]; 750 g/ha) | STEME Ob (observed control) ([3]; 750 g/ha) | AMARE Ob (observed control) ([4]; 750 g/ha) | pest or weed control at 750 g/ha ([5]; Viola tricolor, post-emergence, alone, 750 g/ha, read-out: VIOTR Ob (observed control))

FC(F)C(F)(F)OCC(Cn1cncn1)c1ccc(Cl)cc1Cl (racemic) [Tetraconazole, (±)-1-[2-(2,4-dichlorophenyl)-3-(1,1,2,2-tetrafluoroethoxy)propyl]-1H-1,2,4-triazole]
0%: CIRAR Ob (observed control) ([1]; 125 g/ha) | CHEAL Ob (observed control) ([2]; 125 g/ha) | STEME Ob (observed control) ([3]; 125 g/ha) | AMARE Ob (observed control) ([4]; 125 g/ha) | pest or weed control at 125 g/ha ([5]; Viola tricolor, post-emergence, alone, 125 g/ha, read-out: VIOTR Ob (observed control))

CO/C=C(/C(=O)OC)c1ccccc1COc1cccc(C(F)(F)F)n1 [Picoxystrobin, methyl (E)-(α)-(methoxymethylene)-2-[[[6-(trifluoromethyl)-2-pyridinyl]oxy]methyl]benzeneacetate]
0%: CIRAR Ob ([1]; fungicide 250 g/ha alone) | CHEAL Ob ([2]; fungicide 250 g/ha alone) | STEME Ob ([3]; fungicide 250 g/ha alone) | AMARE Ob ([4]; fungicide 250 g/ha alone) | VIOTR Ob ([5]; fungicide 250 g/ha alone)

CC(Cc1ccc(C(C)(C)C)cc1)CN1CCCCC1 (racemic) [Fenpropidin, (±)-1-[3-[4-(1,1-dimethylethyl)phenyl]-2-methylpropyl]piperidine]
0%: CIRAR Ob ([1]; fungicide 562.5 g/ha alone) | CHEAL Ob ([2]; fungicide 562.5 g/ha alone) | AMARE Ob ([4]; fungicide 562.5 g/ha alone) | pest or weed control at 562.5 g/ha ([5]; Viola tricolor, post-emergence, fungicide 562.5 g/ha alone, read-out: VIOTR Ob)

CC(C)NC(=O)N1CC(=O)N(c2cc(Cl)cc(Cl)c2)C1=O [Iprodione, 3-(3,5-dichlorophenyl)-N-(1-methylethyl)-2,4-dioxo-1-imidazolidine=carboxamide]
0%: CIRAR Ob ([1]; fungicide 750 g/ha alone) | AMARE Ob ([4]; fungicide 750 g/ha alone) | pest or weed control at 750 g/ha ([5]; Viola tricolor, post-emergence, fungicide 750 g/ha alone, read-out: VIOTR Ob)

O=C(O)COc1ccc(Cl)c2cccnc12 [Cloquintocet]
0: VERPE Ob ([6]; Cloquintocet 4.4 g/ha) | VERPE Ob ([6]; Cloquintocet 8.75 g/ha) | KCHSC Ob ([7]; Cloquintocet 4.4 g/ha) | KCHSC Ob ([7]; Cloquintocet 8.75 g/ha) | TRZAS Ob (Wheat; Cloquintocet 4.4 g/ha) | TRZAS Ob (Wheat; Cloquintocet 8.75 g/ha) | MATCH Ob ([8]; Cloquintocet 4.4 g/ha) | MATCH Ob ([8]; Cloquintocet 8.75 g/ha) | VIOTR Ob ([5]; Cloquintocet 4.4 g/ha) | VIOTR Ob ([5]; Cloquintocet 8.75 g/ha) | HORVS Ob (Barley; Cloquintocet 4.4 g/ha) | HORVS Ob (Barley; Cloquintocet 8.75 g/ha) | SASKR Ob ([9]; Cloquintocet 4.4 g/ha) | SASKR Ob ([9]; Cloquintocet 8.75 g/ha)

CO/C=C(/C(=O)OC)c1ccccc1Oc1cc(Oc2ccccc2C#N)ncn1 [Azoxystrobin, methyl (αE)-2-[[6-(2-cyanophenoxy)-4-pyrimidinyl]oxy]-α-(methoxymethylene)benzeneacetate]
0%: pest or weed control at 62.5 g/ha ([7]; Bassia scoparia, post-emergence, fungicide 62.5 g/ha alone, read-out: KCHSC Ob) | pest or weed control at 62.5 g/ha ([8]; Matricaria, post-emergence, fungicide 62.5 g/ha alone, read-out: MATCH Ob) | pest or weed control at 62.5 g/ha ([5]; Viola tricolor, post-emergence, fungicide 62.5 g/ha alone, read-out: VIOTR Ob) | pest or weed control at 62.5 g/ha ([9]; Salsola tragus, post-emergence, fungicide 62.5 g/ha alone, read-out: SASKR Ob)
0: VERPE Ob ([6]; fungicide 250 g/ha) | KCHSC Ob ([7]; fungicide 250 g/ha) | TRZAS Ob (Wheat; fungicide 250 g/ha) | MATCH Ob ([8]; fungicide 250 g/ha) | HORVS Ob (Barley; fungicide 250 g/ha) | SASKR Ob ([9]; fungicide 250 g/ha)
